Values joined by “and” are separate entries in the source; they are usually repeats but may differ in a detail not shown here. Equal values may be shown once. Read-outs that look alike come from different tables or passages of the source.
What was measured:
[1] = molecular target: BRDT-BD1 (Homo sapiens, UniProt Q58F21); assay: AlphaScreen competition assay with biotinylated JQ1; format: binding; parameters: the first bromodomain of BRDT (BRDT-BD1); made in house; host or cells: bacteria (pET15b or pET28b vector); conditions: for BRDT-BD1 vs. BRDT-BD2 fold (BRDT-BD1 selectivity): ratio of AlphaScreen IC50 values, NE = not efficient
[2] = molecular target: BRD4-BD1 (Homo sapiens, UniProt O60885); assay: as above; format: binding; parameters: the bromodomain 1 (BD1) of BRD4; made in house; host or cells: bacteria (pET15b or pET28b vector); conditions: for IC50: read-out: BRD4-BD1 IC50; for BRD4-BD1 vs. BRD4-BD2 fold (BRD4-BD1 selectivity): ratio of AlphaScreen IC50 values, NE = not efficient
[3] = molecular target: T1, BRD4-BD2 (Homo sapiens, UniProt O60885); assay: as above; format: binding; conditions: read-out: BRD4-BD2 IC50
T1 construct: two similar tandem bromodomains (BD1 and BD2); made in house; host or cells: bacteria (pET15b or pET28b vector)

[4] = molecular target: T2, BRDT-BD2 (Homo sapiens, UniProt Q58F21); assay: as above; format: binding
T2 construct: two similar tandem bromodomains (BD1 and BD2); made in house; host or cells: bacteria (pET15b or pET28b vector)

[5] = system: MV4;11 cells; assay: Cell viability by CellTiterGlo; format: cell-based; conditions: for EC50: Table S6, NE = not efficient, read-out: MV4-11 EC50 (viability); for IC50: 72 h of treatment, CellTiterGlo, normalized to DMSO, read-out: Viability IC50 MV4;11
[6] = Metabolic stability assay in liver microsomes (HLM); format: in vitro ADME; conditions: human liver microsomes 0.5 mg protein/mL, compound 2.0 μM, NADPH 1.0 mM; read-out: HLM t1/2 (half-life)
[7] = Metabolic stability assay in liver microsomes (MLM); format: in vitro ADME; conditions: mouse liver microsomes 0.5 mg protein/mL, compound 2.0 μM, NADPH 1.0 mM; read-out: MLM t1/2 (half-life)
[8] = system: THP1 cells; assay: Cell viability by CellTiterGlo; format: cell-based; conditions: 72 h of treatment, CellTiterGlo, normalized to DMSO, read-out: Viability IC50 THP1
[9] = system: MOLM-13 cells; assay: Cell viability by CellTiterGlo; format: cell-based; conditions: 72 h of treatment, CellTiterGlo, normalized to DMSO, read-out: Viability IC50 MOLM-13
[10] = system: Kasumi1 cells; assay: Cell viability by CellTiterGlo; format: cell-based; conditions: 72 h of treatment, CellTiterGlo, normalized to DMSO, read-out: Viability IC50 Kasumi1
[11] = system: MV4;11 cells; assay: Cell cycle analysis by flow cytometry; format: cell-based; conditions: 24 h of treatment at the IC50
[12] = system: MYC expression in MOLM-13 cells; assay: MYC expression by RT-qPCR; format: cell-based; conditions: 8 h of treatment
[13] = system: MYC expression in MV4;11 cells; assay: MYC expression by RT-qPCR; format: cell-based; conditions: 8 h of treatment
[14] = system: MV4;11 cells; assay: Apoptosis detection (Annexin V) by flow cytometry; format: cell-based; conditions: 72 h of treatment
[15] = system: MOLM-13 cells; assay: Apoptosis detection (Annexin V) by flow cytometry; format: cell-based; conditions: 72 h of treatment
[16] = system: BD2; parameters: method as in PMID 24391744; conditions: cited from earlier work
[17] = AlphaScreen, biotinylated JQ1 10 nM, His-bromodomain 10 nM
[18] = AlphaScreen, biotinylated JQ1 10 nM, His-bromodomain 10 nM, NE = not efficient
[19] = AlphaScreen, biotinylated JQ1 10 nM, His-bromodomain 10 nM, NE = not efficient, read-out: BRDT-BD2 IC50

Row | Structure (SMILES) | IC50 [1] [nM] | BRDT-BD1 vs. BRDT-BD2 fold (BRDT-BD1 selectivity) [1] | IC50 [3] [nM] | BRD4-BD1 vs. BRD4-BD2 fold (BRD4-BD1 selectivity) [2] | IC50 [2] [nM] | IC50 ([4]; read-out: BRDT-BD2 IC50) [nM] | further results
1 | Cc1cc(=O)[nH]c2ccc(CC(=O)N3CCC(CCNC(=O)c4cc5ccccc5cn4)CC3)cc12 [CDD-854] |  |  |  |  |  |  | IC50 [1, 17]: 116 nM; IC50 [2, 17]: 119 nM
2 | Cc1ccc(-c2ccc(C(=O)NCCC3CCN(C(=O)Cc4ccc5[nH]c(=O)cc(C)c5c4)CC3)nc2)c(C)c1 [CDD-813] | 33.7 | 2012 fold | 8690 | 312 fold | 27.8 | 67800 | 
3 | CNC(=O)C(CC1CCN(C(=O)Cc2ccc3[nH]c(=O)cc(C)c3c2)CC1)NC(=O)c1ccc(-c2ccc(C)cc2C)cn1 (stereo not drawn) [CDD-724] | 5.7 | 2,246 fold and > 2,000 fold | 34300 | 4035 fold | 8.5 | 12800 | 
4 | CNC(=O)[C@@H](CC1CCN(C(=O)Cc2ccc3[nH]c(=O)cc(C)c3c2)CC1)NC(=O)c1ccc(-c2ccc(Cl)c(F)c2)cn1 [CDD-982] | 4.7 | 4,799 fold | 14000 | 1,423 fold | 9.8 | 22600 | EC50 ([5]; Homo sapiens, MV4-11): 100 nM
5 | Cc1nnc2n1-c1ccc(Cl)cc1C(c1ccccc1)=NC2 [Alprazolam, reference compound] |  |  |  |  |  |  | half-life at 2 μM [6]: 14.4 h; half-life at 2 μM [7]: 5.03 h
6 | Cc1cc(=O)[nH]c2ccc(CC(=O)N3CCC(CCNC(=O)c4ccccn4)CC3)cc12 [CDD-767] | 35.4 | 192 fold | 75200 | 5,449 fold | 13.8 | 6800 | 
7 | Cc1ccc(-c2ccc(C(=O)NC(C)CC3CCN(C(=O)Cc4ccc5[nH]c(=O)cc(C)c5c4)CC3)nc2)c(C)c1 (stereo not drawn) [CDD-906] |  | 756 fold |  | 381 fold |  |  | fold loss of selectivity on BRDT-BD1 ([1]; AlphaScreen): 6.5 fold; IC50 [1, 17]: 31 nM; IC50 [3, 18]: 20000 nM; IC50 [2, 17]: 52.4 nM; IC50 [4, 19]: 23400 nM
8 | CNC(=O)[C@@H](CC1CCN(C(=O)Cc2ccc3[nH]c(=O)cc(C)c3c2)CC1)NC(=O)c1ccc(-c2ccc(Cl)cc2)cn1 [CDD-981] | 5.1 | 6,633 fold | 19900 | 1,553 fold | 12.8 | 33800 | EC50 ([5]; Homo sapiens, MV4-11): 58 nM
9 | CNC(=O)C(CC1CCN(C(=O)Cc2ccc3[nH]c(=O)cc(C)c3c2)CC1)NC(=O)c1ccccn1 (stereo not drawn) [CDD-784] |  | 960 fold |  | 2,078 fold |  |  | IC50 [1, 17]: 20.2 nM; IC50 [3, 18]: 32600 nM; IC50 [2, 17]: 15.7 nM; IC50 [4, 19]: 19400 nM
10 | Cc1cc(=O)[nH]c2ccc(CC(=O)N3CCN(CCNC(=O)c4ccccn4)CC3)cc12 [CDD-778] |  | 13.8 fold |  |  |  |  | IC50 [1, 17]: 5200 nM; IC50 [2, 17]: 1300 nM; IC50 [4, 19]: 71800 nM
11 | Cc1cc(=O)[nH]c2ccc(CC(=O)N3CCC(CCNC(=O)c4ccccc4)CC3)cc12 [CDD-779] | 148 | 70 fold |  |  | 47.9 | 10400 | 
12 | Cc1cc(=O)[nH]c2ccc(CC(=O)N3CCC(CCNC(=O)c4ccc5ccccc5n4)CC3)cc12 [CDD-855] |  |  |  |  |  |  | IC50 [1, 17]: 81.3 nM; IC50 [2, 17]: 122 nM
13 | Cc1cc(=O)[nH]c2ccc(CC(=O)N3CCC(CCNC(=O)c4nccc5ccccc45)CC3)cc12 [CDD-853] | 638 |  |  |  | 341 |  | 
14 | CNC(=O)[C@H](CC1CCN(C(=O)Cc2ccc3[nH]c(=O)cc(C)c3c2)CC1)NC(=O)c1ccc(-c2ccc(C)cc2C)cn1 [CDD-786] | 96.6 | 65 fold | 6100 | 275 fold | 22.2 | 6300 | IC50 ([8]; Homo sapiens, THP-1): 1200 nM; IC50 ([9]; Homo sapiens, MOLM-13): 729 nM; IC50 ([10]; Homo sapiens, Kasumi 1): 262 nM; IC50 ([5]; Homo sapiens, MV4-11): 853 nM
15 | Cc1sc2c(c1C)C(c1ccc(Cl)cc1)=N[C@@H](CC(=O)OC(C)(C)C)c1nnc(C)n1-2 [JQ1, reference compound] |  |  |  |  |  |  | IC50 [8]: 130 nM; IC50 [9]: 130 nM; IC50 [10]: 29.8 nM; IC50 [5]: 61.9 nM
16 | CNC(=O)C(CC1CCN(C(=O)Cc2ccc3[nH]c(=O)ccc3c2)CC1)NC(=O)c1ccc(-c2ccccc2)cn1 (stereo not drawn) [CDD-986] |  | 3,875 fold |  | 2,352 fold |  |  | IC50 [3, 18]: 16700 nM; fold loss of selectivity over BRD4-BD2 ([2]; AlphaScreen): 1.6 fold; IC50 [4, 19]: 20900 nM; EC50 [5]: 143 nM
17 | CNC(=O)[C@@H](CC1CCN(C(=O)Cc2ccc3[nH]c(=O)cc(C)c3c2)CC1)NC(=O)c1ccc(-c2ccccc2)cn1 [CDD-956] |  |  |  |  |  |  | Effect on the cell cycle, MV4;11 [11]: G1 arrest; MYC expression, MOLM-13 [12]: suppressed; MYC expression, MV4;11 [13]: suppressed; Induction of apoptosis (Annexin V+ cells), MV4;11 [14]: apoptosis; Induction of apoptosis (Annexin V+ cells), MOLM-13 [15]: apoptosis; half-life at 2 μM [7]: 0.583 h
18 | COc1cc(OC)c2c(=O)[nH]c(-c3cc(C)c(OCCO)c(C)c3)nc2c1 [RVX-208] |  |  |  |  |  |  | IC50 ([4]; AlphaScreen, read-out: IC50 in our BRDT-BD2 AlphaScreen assay): 2000 nM; selectivity over BD1 domains ([16]; BD2 over BD1): ~10 fold; BD2 potency [16]: > 100 nM

— publication PMC9295786, “Discovery of potent BET bromodomain 1 stereoselective inhibitors using DNA-encoded chemical library selections” (Proceedings of the National Academy of Sciences of the …, 2022)
